Values quoted from earlier work as cited in PMC5364125 (EJNMMI Research, 2017).

How the values were obtained:
[1] = design: method as in PMID 25616581; conditions: cited from earlier work
TSPO [2] = conditions: human subjects; cited from earlier work
TSPO [3] = conditions: cited from earlier work
[4] = design: method as in PMID 27329083; conditions: rats; cited from earlier work
[5] = design: method as in PMID 27329083; conditions: cited from earlier work

CC[C@@H](C)N(C)C(=O)c1cc2ccccc2c(-c2ccccc2Cl)n1 [(R)-PK11195, reference compound]
logP [1]: 2.54

CC[C@@H](C)N([11CH3])C(=O)c1cc2ccccc2c(-c2ccccc2Cl)n1 [(R)-[^11C]PK11195]
V T caudate (TSPO [2]): 0.3 ± 0.1 | V T cerebellum (TSPO [2]): 0.3 ± 0.1 | V T frontal cortex (TSPO [2]): 0.3 ± 0.1 | V T parietal cortex (TSPO [2]): 0.4 ± 0.1 | V T putamen (TSPO [2]): 0.3 ± 0.1 | V T thalamus (TSPO [2]): 0.4 ± 0.1

CCCN(CCC)C(=O)Cc1c(-c2ccc(OC)cc2)nc2c(Cl)cc(Cl)cn12 [CB184]
relative TSPO binding affinity to (R)-PK11195 (TSPO [3]): 7.9 fold | Ki (TSPO [3]; read-out: K i, affinity for TSPO): 0.54 nM | logP [1]: 2.06 | abnormalities in the acute toxicity test [4]: absence of any abnormalities | mutagenicity [5]: absence of mutagenicity

CCN(CC)C(=O)Cc1c(-c2ccc(OC)cc2)nn2c(C)cc(C)nc12 [DPA-713]
relative TSPO binding affinity to (R)-PK11195 (TSPO [3]): 2 fold
